Data on 6 compounds can be found in patent US10898548B2, “Modulators of protein tyrosine phosphatase and uses thereof” (LEUVAS THERAPEUTICS, priority 2015, dated 2021).

Marks after values point to notes of the source that are not given here.

The subject of one assay is human primary monocytes. In words: underflow adhesion of monocytes on E-selectin/ICAM-1 (BioFlux). The settings on record: for arrest 1 sec, flow assay / arrest 10 sec, flow assay / rolling cells, flow assay: Table 3, concentration not given; for arrest 1 sec, flow assay: CTRL 24; for rolling cells, flow assay: CTRL 50. It is filed as cell-based. As for the experimental part: Flow-adhesion assays were also performed to test the ability of the P1-WD peptide to inhibit adhesion of human monocytes under flow conditions. Briefly, Human primary monocytes were suspended at 1×10^6/ml in standard adhesion. Cell behavior in underflow conditions was analyzed with the BioFlux 200 system (Fluxion Biosciences). 48-well plate microfluidics were first co-coated overnight at room temperature with 2.5 μg/ml human E-selectin and 5 μg/ml human ICAM-1 in PBS. Immediately before use, microfluidic channels were washed with PBS and then coated with 10 nM fMLP in PBS for 3 h at room temperature. After extensive washing of microfluidics with adhesion buffer, cells were fluxed at 2 dyne/cm^2 wall shear stress and the behavior of interacting cells was digitally recorded with a fast CCD videocamera (25 frames/s). Single areas of 0.2 mm^2 were recorded for at least 120 s. Interactions of 40 ms or longer were considered significant and scored. Cells that remained firmly adherent for at least 1 s were considered fully arrested. Cells arrested for at least 1 s and then detached, or for 10 s and then remained adherent, were scored separately and plotted as independent groups. Interacting cells behaviors were automatically quantified with BeQuanti.
Briefly, human monocytes were treated with buffer (CTRL), 50 μM TAT peptides, or 0.5 μM TAT-ICD for 1 hour at 37° C. Data are percentages of rolling and arrested cells for the indicated times over total interacting cells; mean values of 4 experiments.
Briefly, Human monocytes were treated with buffer (CTRL=control), 100 μM AG490, 40 μM P1 or P1-TKIP peptides or 200 μM WHI-P154 for 1 hour at 37° C. Shown are percentages of rolling and arrested cells for the indicated times over total interacting cells; mean values of 5 experiments; errors bars are SDs.

In a further assay the target is T1, JAK2 (Homo sapiens, UniProt O60674).
T1 construct: endogenous in cells; host or cells: human primary monocytes
In words: phospho-JAK2 Western Blot on monocytes. It is filed as cell-based. The settings on record: 50 nM fMLP 180 sec. The source says:
JAK2 regulation by PTPRG as assessed through the high-throughput phospho-proteomics analysis evidenced that PTPRG activation (Example 4, Table 9 and 10) provides a useful example of the exploitation of this analysis system for identification of targets and unexpected indications/uses for known and novel agents that regulate the phoshoproteome. […] Furthermore, the capability of fMLP to trigger JAKs activation has never been observed. The results described in Example 4 unexpectedly implicate JAK2 de-phosphorylation by PTPRG as playing a role in the anti-adhesive role of PTPRG on monocytes. To test this system-generated hypothesis we first set out to define the role of JAK2 in fMLP-triggered rapid adhesion in monocytes. Time course experiments, either performed with ELISA assay or Western Blot. Briefly, purified human monocytes were treated with buffer (resting) or with 50 nM fMLP for the indicated times (Table 12), and the phosphorylation was assessed by p-Jak2 elisa and Western Blot analysis. The JAK2 activation was determined with Elisa Kit JAK2 (pYpY1007/1008) (Invitrogen). Briefly, cells were stimulated with agonist and lysed following manufacturer's protocol; levels of phospho-JAK2 were quantified (absorbance at 450 nm) with a micro-well plate reader (Victor™ X5 Multilabel Plate Reader, Perkin Elmer). For Western blot analysis, cells were lysed in ice-cold 1% Nonidet P-40 buffer, containing phosphatase inhibitors and complete protease inhibitor cocktail (Roche). Total cell lysates were quantified by Bradford assay (Bio-Rad). Equal amounts of total lysates or of isolated membranes (as described in Example 1) were subjected to 10% SDS-PAGE and then blotted. After incubation with anti-PTPRG, anti gp91^Phox, anti phospho-JAK2, anti JAK2 and HRP-linked secondary antibodies (GE Healthcare), immunoreactive bands were visualized by ECL detection (EMD Millipore). Intensities of band signals were quantified by densitometric analysis (Quantity One, Bio-Rad) by using ImageQuant Las4000. Data are mean value of three experiments; the relative ratio of the band intensity of phosphor-JAK2 was normalized to the level of JAK2 band intensities.
To evaluate whether JAK2 mediates fMLP-triggered rapid adhesion in human monocytes, we tested the capability of three JAK inhibitors, AG490, WHI-P154 and P1-TKIP peptide, to block adhesion triggering. Briefly, Monocytes were treated with buffer (resting and Control=CTRL), 100 μM AG490, 40 μM P1 or P1-TKIP peptides, or 200 μM WHI-P154 for 1 hour at 37° C. and stimulated with 50 nM fMLP for 180 sec. Cell lysates were probed with anti phospho-JAK2 and with anti JAK2. Western Blot immuoreactive band quantification; the relative ratio of the band intensity of phospho-JAK2 was normalized to the level of JAK2 band intensities; mean values of three experiments (Table 13).
The impact of TAT-ICD and P1-WD on JAK2 activation by chemoattractants was also evaluated by Western Blot analysis. Briefly, monocytes were treated with buffer (Resting, CTRL), 0.5 uM TAT-ICD, 50 μM TAT peptide, 50 μM P1-WD, P1 or P1-WD scrambled peptides for 1 hour at 37° C. and stimulated with 50 nM fMLP for 180 sec (the resting cells were not stimulated with fMLP). Total lysates were probed with anti phospho-JAK2 or with anti JAK. Western Blot immunoreactive bands were quantified and the relative ratio of the band intensity of phospho-JAK2 was normalized to the level of JAK2 band intensities; data are mean value and standard deviation of three experiments (Table 19).
Background: Immunoblotting shows a protein as a band on a membrane.

Where [1] appears, read: 0.5 uM TAT-ICD, 50 μM TAT, 50 μM P1-WD, P1 or P1-WD scrambled, 1 hour, CTRL 50, Resting 8.
[2] abbreviates: 50 μM TAT peptides or 0.5 μM TAT-ICD, 1 hour at 37° C., CTRL 12.
Setting [3] is: 50 μM TAT peptides or 0.5 μM TAT-ICD, 1 hour at 37° C., CTRL 22.
Where [4] appears, read: 50 μM TAT peptides or 0.5 μM TAT-ICD, 1 hour at 37° C., CTRL 66.
Where [5] appears, read: 100 μM AG490, 40 μM P1 or P1-TKIP, 200 μM WHI-P154, 1 hour, CTRL 26.
Setting [6] is: 100 μM AG490, 40 μM P1 or P1-TKIP, 200 μM WHI-P154, 1 hour, CTRL 34.
The mark [7] stands for this setting: 100 μM AG490, 40 μM P1 or P1-TKIP, 200 μM WHI-P154, 1 hour, CTRL 40.
Setting [8] is: 100 μM AG490, 40 μM P1 or P1-TKIP, 200 μM WHI-P154, 1 hour, CTRL 207.7, Resting 18.8.

T1 sequence (O60674 whole entry): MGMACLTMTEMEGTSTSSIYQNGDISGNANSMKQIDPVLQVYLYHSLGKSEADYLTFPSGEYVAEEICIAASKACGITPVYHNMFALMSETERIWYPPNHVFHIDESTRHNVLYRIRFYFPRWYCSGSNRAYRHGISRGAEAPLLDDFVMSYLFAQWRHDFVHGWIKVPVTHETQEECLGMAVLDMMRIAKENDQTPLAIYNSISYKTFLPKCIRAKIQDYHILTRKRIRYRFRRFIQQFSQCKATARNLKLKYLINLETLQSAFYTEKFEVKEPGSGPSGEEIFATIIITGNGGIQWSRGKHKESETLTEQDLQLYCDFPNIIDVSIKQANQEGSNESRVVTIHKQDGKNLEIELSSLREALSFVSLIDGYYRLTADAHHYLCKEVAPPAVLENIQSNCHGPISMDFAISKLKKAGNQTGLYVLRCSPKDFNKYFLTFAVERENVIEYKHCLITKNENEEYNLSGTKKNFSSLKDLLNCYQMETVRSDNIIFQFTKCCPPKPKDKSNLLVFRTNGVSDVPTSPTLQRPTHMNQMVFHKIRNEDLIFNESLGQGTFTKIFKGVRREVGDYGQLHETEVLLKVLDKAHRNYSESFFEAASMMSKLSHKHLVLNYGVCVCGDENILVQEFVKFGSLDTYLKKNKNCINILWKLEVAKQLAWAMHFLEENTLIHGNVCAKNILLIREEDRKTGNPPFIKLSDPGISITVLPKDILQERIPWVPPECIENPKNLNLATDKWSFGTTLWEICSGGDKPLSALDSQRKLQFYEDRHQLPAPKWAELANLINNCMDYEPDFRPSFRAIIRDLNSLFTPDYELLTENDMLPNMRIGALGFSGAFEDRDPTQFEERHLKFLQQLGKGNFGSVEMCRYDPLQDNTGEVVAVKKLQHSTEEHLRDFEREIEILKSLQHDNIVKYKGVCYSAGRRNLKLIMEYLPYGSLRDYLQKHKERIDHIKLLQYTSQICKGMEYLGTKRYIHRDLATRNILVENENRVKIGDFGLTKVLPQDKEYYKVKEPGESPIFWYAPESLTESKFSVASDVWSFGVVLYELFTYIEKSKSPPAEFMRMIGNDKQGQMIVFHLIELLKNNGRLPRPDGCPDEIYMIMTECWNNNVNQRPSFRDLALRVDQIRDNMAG

Regarding “P1-WD: fusion Trojan peptide SEQ ID 3: Penetratin, glycine, PTPRG wedge domain aa 831-856; RQIKIWFQNRRMKWKKGKQFVKHIGELYSNNQHGFSEDFEEVQ (listed as Homo sapiens)”, in the assay with human primary monocytes, the “arrest 1 sec, flow assay” value is listed as 9 and the “rolling cells, flow assay” value was found to be 80. For the same compound, the “arrest 10 sec, flow assay” value in the assay with human primary monocytes (CTRL 26) was 11. Also, in the assay with JAK2 (setting [1]), the “phospho-JAK2 band intensity normalized to JAK2, Western Blot” value (“phospho-JAK2 band intensity normalized” for short) was 12*.
Regarding “TAT-ICD: fusion recombinant protein SEQ ID 5: PTPRG intracellular domain aa 797-1445 fused to 13 aa TAT sequence”, the “rolling cells over total interacting cells, flow assay” value in the assay with human primary monocytes (setting [2]) amounted to 79%. In the assay with human primary monocytes (setting [3]), the “cells arrested 1 sec over total interacting cells, flow assay” value is 10%. Also, the “cells arrested 10 sec over total interacting cells, flow assay” value in the assay with human primary monocytes (setting [4]) is 11%. For the same compound, in the assay with JAK2 (setting [1]), the “phospho-JAK2 band intensity normalized” value is listed as 15*.
Take “TAT (GRKKRRQRRRPPQ; listed as Homo sapiens) [reference compound]”: the “rolling cells over total interacting cells, flow assay” value with human primary monocytes (setting [2]) came out at 14%. For the same compound, the “cells arrested 1 sec over total interacting cells, flow assay” value in the assay on human primary monocytes (setting [3]) turned out to be 25%. Moreover, the “cells arrested 10 sec over total interacting cells, flow assay” value with human primary monocytes (setting [4]) is given as 61%. In the assay with JAK2 (setting [1]), the “phospho-JAK2 band intensity normalized” value turned out to be 40.
As for `COc1cc2ncnc(Nc3ccc(O)c(Br)c3)c2cc1OC` [WHI-P154], the “cells arrested 10 sec over total interacting cells, flow assay” value in the assay on human primary monocytes (setting [5]) amounted to 14%. Moreover, the “cells arrested 1 sec over total interacting cells, flow assay” value in the assay on human primary monocytes (setting [6]) is 20%. Also, the “rolling cells over total interacting cells, flow assay” value in the assay with human primary monocytes (setting [7]) turned out to be 66%. Further, the “phospho-JAK2 band intensity normalized” value at JAK2 (setting [8]) was found to be 4.9.
In the case of “P1: Penetratin delivery peptide, 16 aa RQIKIWFQNRRMKWKK (SEQ ID 4), control [reference compound]”, the “cells arrested 10 sec over total interacting cells, flow assay” value with human primary monocytes (setting [5]) worked out at 30%. Moreover, in the assay on human primary monocytes (setting [6]), the “cells arrested 1 sec over total interacting cells, flow assay” value is reported as 26%. In addition, in the assay on human primary monocytes (setting [7]), the “rolling cells over total interacting cells, flow assay” value amounted to 44%. In the assay on human primary monocytes, the “arrest 1 sec, flow assay” value amounted to 32 and the “rolling cells, flow assay” value was found to be 38. Further, the “arrest 10 sec, flow assay” value in the assay on human primary monocytes (CTRL 26) is on record as 30. Also, the “phospho-JAK2 band intensity normalized” value with JAK2 (setting [1]) is 49. For the same compound, in the assay with JAK2 (setting [8]), the “phospho-JAK2 band intensity normalized” value came out at 111.4.
Turning to `N#C/C(=C/c1ccc(O)c(O)c1)C(=O)NCc1ccccc1` [AG490], in the assay with human primary monocytes (setting [5]), the “cells arrested 10 sec over total interacting cells, flow assay” value turned out to be 10%. Also, the “cells arrested 1 sec over total interacting cells, flow assay” value in the assay with human primary monocytes (setting [6]) stood at 20%. In addition, in the assay on human primary monocytes (setting [7]), the “rolling cells over total interacting cells, flow assay” value stood at 70%. In addition, the “phospho-JAK2 band intensity normalized” value on JAK2 (setting [8]) stood at 9.2.
